The text below walks through data of EP0012271A1, “Prednisone derivatives, process for their production and pharmaceutical preparations containing these compounds” (SCHERING AKTIENGESELLSCHAFT, priority 1978, dated 1980).

A word on the ED50: it is the midpoint of the dose-response relation.

The subject of test [1] is Pfotenödems. In words: Undesired systemic activity: Mycobacterium butyricum-induced paw oedema in rats, oral administration. Format: in vivo, SPF-Ratten. The settings on record: Rattus norvegicus, dose giving 50% reduction of paw oedema volume, measured 24 h after dosing, higher value = less undesired systemic effect, read-out: Systemische Wirksamkeit ED50. The source says:
(§1) Die Prednison-Derivate der allgemeinen Formel I gemäß Anspruch 1 zeichnen sich gegenüber dem in handelsüblichen pharmazeutischen Präparate befindlichen, strukturanalogen Kortikoid 17α-Butyryloxy-21-chlor-9α-fluor-16β-methyl- l,4-pregnadien-3,11,20-trion durch eine günstigere Dissoziation zwischen erwünschter topischer antiinflammatorischer Wirksamkeit und unerwünschter systemischer Nebenwirkung aus, wie folgende pharmakologische Untersuchungen zeigen: • a) Ermittlung der topischen antiinflammatorischen Wirksamkeit: Die Untersuchungen werden an je 8 gesunden Probanden beider Geschlechter durchgeführt, die in den letzten zwei Wochen keine lokale Corticosteroidbehandlung erhalten hatten. Nach dem Entfernen des Stratum corneum bis zum Stratum lucidum auf dem Rücken der Probanden (20 - 40 Tesafilm-Abrisse) werden je o,l g der Zubereitung auf 4 cm^2 große Felder ohne Okklusionsverband aufgetragen. Um zu vermeiden, daß die gleiche Zubereitung jeweils auf identische Hautreale appliziert wird, wird in rotierender Folge aufgetragen. […]

Test [2] concerns Vasokonstriktion. In words: Topical anti-inflammatory activity: vasoconstriction test on tape-stripped back skin of healthy volunteers, visual grading 1-5 compared with DFV. Format: in vivo, gesunden Probanden. The settings on record: Konz. der Salbe, mean of 8 volunteers, positive = better than DFV, negative = worse.
Excerpt: as §1

Each structure is given as a SMILES string.

On to `CCCC(=O)O[C@]1(C(=O)CCl)CC[C@H]2[C@@H]3CCC4=CC(=O)C=C[C@]4(C)[C@@]3(F)C(=O)C[C@@]21C` [Nr. 3, 17α-Butyryloxy-21-chlor-9α-fluor-1,4-pregnadien-3,11,20-trion], for which the median effective dose (ED50) in test [1] is 30 mg/kg. Further, the figures for the “Topische Wirksamkeit, Wirkungsgrad DFV - Wirkungsgrad Substanz” value in test [2] (Beobachtungszeit 4 h) and in test [2] (Beobachtungszeit 8 h) were -0,1 and 0,0, respectively.
